Measurements from patent US12576059B2, “Methods and compositions for treatment of inflammatory disease” (priority 2021, dated 2026).

Experiments:
[1] = test system: LPS induced acute lung inflammation; test: Example 2: LPS induced inflammation, H-AA versus D-AA, male and female mice; format: in vivo; details: for Interalveolar space / Interalveolar surface area: 6-week course, then single intranasal LPS; for inflammation in the lungs (in words): male and female mice, after LPS
Protocol: LPS administration was conducted as per Example 1 above except that four groups of mice were used. The first two groups (1 and 2) were control mice (male and female). The next two groups (3 and 4) of mice received a 6-week course of H-AA (male and female). Finally, the last two groups (5 and 6) of mice received a 6-week course of D6-AA (second group). Groups 3, 4, 5 and 6 then received a single intranasal administration of LPS to induce acute lung inflammation. The degree of the inflammatory response was determined per Example 1. Next, the height and distance of the interalveolar septa was determined to provide for the surface area of the inflammation.

[2] = test system: LPS induced acute lung inflammation; test: Example 1: LPS induced acute lung inflammation, interalveolar septa distance; format: in vivo, mice
Text: LPS administration is known to promote inflammation through various mechanisms including secretion of pro-inflammatory cytokines, eicosanoids and induction of ROS. This example employed LPS to ascertain the extent of inflammation arising from ROS induced oxidation of H-AA versus D-AA in the lungs of mice. Specifically, four groups of mice were used. The first group was control mice treated with H-LA control mice. The second group of mice received a 6-week course of D-LA. It is understood that in vivo conversion of a portion of both H-LA and D-LA occurs to provide for AA and 13,13-D2-AA respectively. The third group of mice received a 6-week course of H-AA. The fourth group of mice received a 6-week course of D-AA. All groups then received a single intranasal administration of LPS to induce acute lung inflammation. The degree of the inflammatory response was based on the interalveolar septa distance where the larger the distance of the septa, the greater the degree of inflammation. The animals were sacrificed and the interalveolar septa distance was measured. Table 1 provides an average degree of spatial distance for the interalveolar septa for the results of all groups.

[3] = test system: LPS induced acute lung inflammation; test: Example 1a: mouse model of lung inflammation (FIGS. 3-6, Table 4); format: in vivo, mice; details: for Alveolar lumen area (25%; 75%) / Partition thickness Me (25%; 75%): + LPS, median; for protective / therapeutic effect compared to other deuterated PUFAs: preliminary data (not shown)
Protocol: FIGS. 3-6 Groups of female (f) and male (m) mice received a 6-week course of dietary (H) AA or a 6-week course of deuterated arachidonic acid (D6-ARA, 15 mg/day) followed by single intranasal administration of LPS.
LPS treatment promotes inflammation through various mechanisms including secretion of pro-inflammatory cytokines, eicosanoids and induction of ROS. Following induction by the intranasal administration of LPS, an acute lung inflammation quickly follows. […] Such a pronounced inflammatory infiltration of the interalveolar septa contributed to their destruction and more frequent formation of emphysema foci in this group. […] (See FIGS. 3-6.)
The degree of alveolar lumen area changes in both groups of animals depended on gender. […]

[4] = design: species or system mice; details: in vivo
Protocol: Male and Female BALB/c and C57BL/6 mice were provided with standard environmental conditions i.e., 22±1° C., 55±5% humidity and 12 h light/dark cycle with free food and water access. At the age of six weeks, animals were split into 8 groups (n=160 total, 20 of each gender) and were continuously fed ad libitum on the diet containing either H-AA or D-AA for 2, 4, 6 or 8 weeks at the daily rate of ca. 5 g of diet per mouse for the duration of the study. The other two groups of animals (n=40, 20 of each gender) received neither PUFA-enriched diets nor LPS served as controls. The body weight and food intake were measured once a week. […]
The relative ratio of H-AA to D-AA was determined by gas chromatography (GC) coupled to chemical ionization mass spectrometry. […]
As the first step to test this hypothesis, we studied the metabolic effect of such a dietary supplementation. We determined the actual content of D-AA and then performed a washout experiment after a long period of supplementation by switching from D-AA to H-AA diet by MS analysis of several mouse tissues in the AA-diet fed mice. […]

[2H]C([2H])(/C=C\CCCCC)/C=C\C([2H])([2H])/C=C\C([2H])([2H])/C=C\CCCC(=O)O [D-AA, 7,7,10,10,13,13-D6-arachidonic acid]
Interalveolar space ([1]; female mice): ~3.5 μm | Interalveolar surface area ([1]; female mice): ~90 μm^2 | inflammation in the lungs (in words) [1]: statistically significant reduction in inflammation | inflammation in the lungs (in words) ([1]; listed as D-6 AA): less inflammation in the lungs | Interalveolar space ([1]; male mice): ~5.0 μm | Interalveolar surface area ([1]; male mice): ~190 μm^2 | Interalveolar space (average spatial distance for the interalveolar septa) ([2]; 6-week course, then single intranasal LPS): 4.1 μm | reduction in the spatial distance for the interalveolar septa ([2]; D-LA relative to H-LA, comparator for D-AA not stated): ~60% | alveolar lumen area and thickness versus controls ([3]; 6-week course, 15 mg/day, then single intranasal LPS): consistent with controls | Alveolar lumen area (25%; 75%) ([3]; females): 57.4 μm^2 | Partition thickness Me (25%; 75%) ([3]; females): 3.6 µm | Alveolar lumen area (25%; 75%) ([3]; males): 112.1 μm^2 | Partition thickness Me (25%; 75%) ([3]; males): 5.55 µm | protective / therapeutic effect compared to other deuterated PUFAs [3]: best protective effect | protective / therapeutic effect compared to other deuterated PUFAs ([3]; listed as D6-AA): better therapeutic effect | incorporation of the deuterated form ([4]; both, BALB/c and C57BL/6, mouse, 12 weeks): more than 60% | washout with H-AA feeding ([4]; mouse): more rapid than brain
